Assay [1] relates to C. albicans B4. The assay can be described thus: agar dilution method, C. albicans B4. The class given is cell-based, Candida albicans. Conditions: for MIC: Candida albicans, B4, 48 h; for FIC: synergistic when FIC <0.5.
Assay [2] deals with C. albicans 3153. Briefly: agar dilution method, C. albicans 3153. The class given is cell-based, Candida albicans. As to conditions: for MIC: Candida albicans, 3153, 48 h, alone, 37° C., 2 days; for FIC: synergistic when FIC <0.5.
The test system of assay [3] is C. albicans B5. Briefly: agar dilution method, C. albicans B5. The class given is cell-based, Candida albicans. As to conditions: for MIC: Candida albicans, B5, 48 h; for FIC: synergistic when FIC <0.5.
In assay [4] the test system is Candida albicans. Briefly: agar dilution method, synergism with sterol biosynthesis inhibitors. The class given is cell-based. As to conditions: in combination with ketoconazole or terbinafine; synergistic when FIC <0.5.
Assay [5] has as its target T1, 2,3-epoxysqualene-lanosterol cyclase (Candida albicans, UniProt Q04782).
T1 construct: there was obtained a cell-free extract (CFE) as the supernatant; endogenous in cells; host or cells: Candida albicans culture, protoplasts ruptured, cell-free extract (10000 g supernatant)
The assay can be described thus: inhibition of 2,3-epoxysqualene-lanosterol cyclase from Candida albicans (cell-free extract, 14C-squalene epoxide). The class given is biochemical. As to conditions: cell-free extract, pH 6.9, 30° C., 1 hour; read-out: IC50 (converted).

The test system of assay [6] is C. albicans H12. Briefly: agar dilution method, C. albicans H12. The class given is cell-based, Candida albicans. As to conditions: for MIC: Candida albicans, H12, 48 h.
For assay [7], the system named is C. albicans H29. The assay can be described thus: agar dilution method, C. albicans H29. The class given is cell-based, Candida albicans. As to conditions: for MIC: Candida albicans, H29, 48 h, alone, 37° C., 2 days; for FIC: synergistic when FIC <0.5.
In assay [8] the test system is C. albicans 3152. The assay can be described thus: agar dilution method, C. albicans 3152. The class given is cell-based, Candida albicans. As to conditions: Candida albicans, 48 h, alone, 37° C., 2 days.
The mark [9] stands for this setting: in combination with ketoconazole.
Where [10] appears, read: in combination with terbinafine.
Setting [11] is: in combination with compound 14.
The mark [12] stands for this setting: in combination with compound 20.

Values after ≈ are worked out from the molar mass of the structure shown. Values joined by “and” are separate entries in the source; they are usually repeats but may differ in a detail not shown here. Equal values may be shown once. Where a name gives a salt, the structure may show the parent alone.

T1 sequence (Q04782 whole entry): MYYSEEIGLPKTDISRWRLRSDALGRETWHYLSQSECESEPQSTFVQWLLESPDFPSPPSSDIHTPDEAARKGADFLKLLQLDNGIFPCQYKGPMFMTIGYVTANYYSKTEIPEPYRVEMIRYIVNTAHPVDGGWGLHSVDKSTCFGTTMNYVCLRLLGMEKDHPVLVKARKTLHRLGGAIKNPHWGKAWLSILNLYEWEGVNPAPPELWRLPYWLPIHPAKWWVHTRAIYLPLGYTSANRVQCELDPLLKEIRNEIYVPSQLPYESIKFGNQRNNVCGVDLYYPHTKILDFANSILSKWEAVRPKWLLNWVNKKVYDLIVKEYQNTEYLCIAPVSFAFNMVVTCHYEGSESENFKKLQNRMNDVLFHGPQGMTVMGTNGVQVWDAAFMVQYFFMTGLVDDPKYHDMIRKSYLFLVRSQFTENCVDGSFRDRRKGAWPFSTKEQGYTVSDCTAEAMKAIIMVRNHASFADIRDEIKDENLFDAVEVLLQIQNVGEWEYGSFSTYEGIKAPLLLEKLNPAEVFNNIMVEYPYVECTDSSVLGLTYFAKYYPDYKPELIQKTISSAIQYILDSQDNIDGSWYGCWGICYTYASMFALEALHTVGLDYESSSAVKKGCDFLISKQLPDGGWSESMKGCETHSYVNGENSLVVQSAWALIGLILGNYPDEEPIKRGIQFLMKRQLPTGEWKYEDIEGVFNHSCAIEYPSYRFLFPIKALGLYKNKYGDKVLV

As to `C=CCN(C)Cc1ccc(-c2ccc(C(=O)c3ccc(Br)cc3)cc2)cc1` [Compound 20, 4'-[[(Allylmethylamino)methyl]-4-biphenylylp-bromophenyl ketone hydrochloride], the minimum inhibitory concentration (MIC) came to 2 µg/mL in assay [1] (alone, 37° C., 2 days); 1 µg/mL in assay [2]; 1 µg/mL in assay [3] (alone, 37° C., 2 days); 2 µg/mL in assay [6] (alone, 37° C., 2 days); 1 µg/mL in assay [7]. Further, the “MIC of compound in combination” value in assay [1] (setting [9]) came to 0.12 µg/mL; in assay [1] (setting [10]), 0.50 µg/mL; in assay [2] (setting [9]) it was 0.12 µg/mL; in assay [2] (setting [10]), 0.12 µg/mL; in assay [3] (setting [9]), 0.25 µg/mL; in assay [3] (setting [10]), 0.25 µg/mL. For the same molecule, the “MIC of compound in combination” value in assay [6] (setting [10]), in assay [7] (setting [9]) and in assay [7] (setting [10]) was 0.25 µg/mL each time. Besides, the FIC in assay [1] (setting [9]) is 0.093; in assay [1] (setting [10]), 0.266; in assay [2] (setting [9]), 0.156; in assay [2] (setting [10]) it was 0.375; in assay [3] (setting [9]), 0.25; in assay [3] (setting [10]), 0.5. The FIC in assay [6] (in combination with ketoconazole, synergistic when FIC <0.5, hydrochloride) was 0.156 and 0.078; in assay [6] (in combination with terbinafine, synergistic when FIC <0.5), 0.25; in assay [7] (setting [9]), 0.375; in assay [7] (setting [10]), 0.50. In addition, in assay [4], the synergistic activity result is on record as “confirm the synergistic activity”. Moreover, in assay [5], the half-maximal inhibitory concentration (IC50) was 30.9 nM.

On to `CC(=O)N1CCN(c2ccc(OCC3COC(Cn4ccnc4)(c4ccc(Cl)cc4Cl)O3)cc2)CC1` (stereo not shown) [ketoconazole, reference compound], for which the MIC turned out to be 2.5 µg/mL (≈ 4.7 µM) in assay [8]; 2.5 µg/mL (≈ 4.7 µM) in assay [1] (alone, 37° C., 2 days); 2.5 µg/mL (≈ 4.7 µM) in assay [2]; 0.15 µg/mL (≈ 0.282 µM) in assay [3] (alone, 37° C., 2 days); 5 µg/mL (≈ 9.41 µM) in assay [6] (alone, 37° C., 2 days); 0.15 µg/mL (≈ 0.282 µM) in assay [7]. Further, the MIC alone in assay [1] (alone, 37° C., 2 days) stood at 5 µg/mL (≈ 9.41 µM); in assay [3] (alone, 37° C., 2 days), 0.3 µg/mL (≈ 0.565 µM); in assay [6] (alone, 37° C., 2 days), 10 µg/mL (≈ 18.8 µM). The “MIC of sterol biosynthesis inhibitor in combination” value in assay [1] (setting [11]) was 0.075 µg/mL and 0.15 µg/mL; in assay [1] (setting [12]), 0.075 µg/mL; in assay [2] (setting [12]) it was 0.075 µg/mL; in assay [3] (setting [11]), 0.019 µg/mL and 0.038 µg/mL; in assay [3] (setting [12]), 0.019 µg/mL; in assay [6] (setting [12]), 0.15 µg/mL and 0.075 µg/mL. The “MIC of sterol biosynthesis inhibitor in combination” value in assay [7] (setting [11]) was 0.019 µg/mL and 0.038 µg/mL; in assay [7] (setting [12]), 0.019 µg/mL.

(Values after US5239084A, “Substituted aminoalkyl biphenyl compounds” (Hoffmann-La Roche Inc., priority 1990, dated 1993).)
